The values below come from patent US9340577B2, “HLA binding motifs and peptides and their uses” (priority 1992, dated 2016).

Holding throughout (experiment): biochemical
Test [1] addresses DR4w4 (DRB1*0401) (Homo sapiens, UniProt P01903+P01911, A100K/A169T/F76Y/I96L/K127E/L162R/M171V/N62H/P40V/Q125Y/R42H/S133A/S149N/S66Y/V115G/V209L/W38E). The class given is binding.
Test [2] deals with DR7 (DRB1*0701) (Homo sapiens, UniProt P01903+P01911, A100R/A102G/A103Q/D57E/D86V/E43K/F76Y/K127E/L162R/M171V/P40G/Q125H/Q99D/R33Q/R42Y/R54Q/S133A/S66F/T210M/V115G/Y107V/Y59L/Y89S). Format: binding.
Test [3] has as its target DRB1*1501 (Homo sapiens, UniProt P01903+P01911). Format: binding.
Test [4] concerns the target DRB4*0101 (Homo sapiens, UniProt P01903+P13762, G164S). Format: binding.
The target of test [5] is DRB1*1302 (Homo sapiens, UniProt P01903+P01911, A100E/A169T/K41T/L162R/M171V/P40S/Q125H/Q178H/Q39Y/Q99D/R42S/S66N/T262R/V115G/W38E/Y61H). Format: binding.
DRB1*1302, sequence (P01903 26-254 limits assumed, other chains not shown): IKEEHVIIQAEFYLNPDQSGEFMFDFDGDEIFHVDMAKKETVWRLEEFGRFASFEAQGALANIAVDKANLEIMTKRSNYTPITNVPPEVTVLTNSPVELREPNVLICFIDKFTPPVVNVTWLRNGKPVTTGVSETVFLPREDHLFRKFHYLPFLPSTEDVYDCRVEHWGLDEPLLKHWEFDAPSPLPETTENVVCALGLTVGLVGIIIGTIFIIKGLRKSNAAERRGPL
Test [6] has as its target DRB1*1101 (Homo sapiens, UniProt P01903+P01911, A100R/A169T/A87E/I96F/K41T/L162R/M171V/P40S/Q125H/Q178H/Q39Y/Q99D/R42S/S66Y/T262R/V115G/W38E).
The target in test [7] is DRB5*0101 (Homo sapiens, UniProt P01903+Q30154).
Test [8] deals with DRB1*0802 (Homo sapiens, UniProt P01903+P01911, A100R/A103L/A169T/F76Y/H45Y/I96F/K41T/L162R/M171V/P40S/Q125H/Q178H/Q39Y/Q99D/R218S/R42G/S66Y/V115G/W38E). Format: binding.
Test [9] deals with DRB1*0901 (Homo sapiens, UniProt P01903+P01911, A100R/A103E/D57H/D86V/F55Y/F60I/F76Y/I96F/K127E/L162R/M171V/P40D/Q125H/Q99R/R33Q/R42F/S133A/S66N/T210M/V115G/W38K/Y107V/Y59G/Y89S). Format: binding.
Test [10] concerns the target DR1 (DRB1*0101) (Homo sapiens, UniProt P01903+P01911, A100R/D57E/F55L/F60I/F76Y/I96L/L162R/M171V/P40L/Q125E/R42F/V115G/Y59C). Format: binding.
The target of test [11] is A*0202 (Homo sapiens, UniProt P04439, D140Y/D185E/D98H/E176V/E277Q/G131W/G231S/I119L/I121R/I166T/I218V/L180W/L300P/L318F/N151K/N90K/P208A/P217A/Q67R/Q86G/Q94H/R138H/R169H/T345S). The class given is binding.
Test [12] concerns the target A*6802 (Homo sapiens, UniProt P04439, A269V/D140Y/D185E/E176V/E277Q/E87N/F33Y/G231S/I121R/I166T/I218V/L180W/L300P/L318F/N151K/P208A/P217A/Q86R/R138H/R169H/S129P/T345S/V36M). The class given is binding.

Where two headings read alike, the source gives them in different places. No end group written: not given here. Bounds are passed on as bounds.

DRB1*1101, sequence (P01903 26-254 limits assumed, other chains not shown): as above

“702.17 (AYAAAKA; also: non-natural residues (20)) [Peptide 702.17]”: the IC50 in test [1] (read-out: DRB1*0401) amounted to 250 nM; in test [2] (read-out: DRB1*0701), 8330 nM.
“730.15 (AAKAAAAAAAAA; also: non-natural residue (10)) [Peptide 730.15]”: in [1] (read-out: DRB1*0401), the IC50 is above 889 nM.
With “787.35 (AAIGFFFFKKGIA; also: non-natural residue (43)) [Peptide 787.35]”, the IC50 in [1] (read-out: DRB1*0401) is 258 nM.
As for “787.39 (AAIGGIFIFKKDA; also: non-natural residue (43)) [Peptide 787.39]”, in test [1] (read-out: DRB1*0401), the IC50 came out at 800 nM.
On the same count and under the same terms, then “839.03 (AAAATKAAAA; also: non-natural residues (14), (35)) [Peptide 839.03]”, with above 500 nM.
Regarding `CC[C@H](C)[C@H](NC(=O)[C@@H](NC(=O)[C@H](CCSC)NC(=O)[C@H](Cc1ccc(O)cc1)NC(=O)CNC(=O)[C@@H](NC(=O)[C@H](CO)NC(=O)[C@@H](NC(=O)[C@H](CCC(N)=O)NC(=O)[C@@H](NC(=O)[C@H](CO)NC(=O)[C@H](CC(N)=O)NC(=O)[C@@H]1CCCN1C(=O)[C@@H](NC(=O)[C@@H](N)[C@@H](C)O)[C@@H](C)CC)C(C)C)[C@@H](C)CC)C(C)C)[C@@H](C)O)C(=O)O` [Peptide 1601.42], the results for the IC50 in [2], in test [3] and in test [4] were 9 nM, 10 nM and 16 nM, respectively.
Take `CC[C@H](C)[C@H](NC(=O)[C@@H](N)Cc1c[nH]c2ccccc12)C(=O)N[C@H](C(=O)N[C@@H](CCC(N)=O)C(=O)N[C@@H](CS)C(=O)N[C@@H](Cc1ccccc1)C(=O)N[C@@H](CC(C)C)C(=O)N1CCC[C@H]1C(=O)N[C@H](C(=O)N[C@@H](Cc1ccccc1)C(=O)N[C@@H](CC(C)C)C(=O)N[C@@H](C)C(=O)N[C@@H](CCC(N)=O)C(=O)N1CCC[C@H]1C(=O)N1CCC[C@H]1C(=O)N[C@@H](CO)C(=O)NCC(=O)N[C@@H](CCC(N)=O)C(=O)N[C@@H](CCCNC(=N)N)C(=O)N[C@@H](CCCNC(=N)N)C(=O)O)C(C)C)[C@@H](C)O` [Peptide F189.02]: the figures for the IC50 in test [5], in [3] and in [4] were 23600 nM, 726 nM and 688 nM, respectively.
Consider `CC[C@H](C)[C@H](NC(=O)[C@H](CCCCN)NC(=O)[C@H](CC(N)=O)NC(=O)[C@@H](NC(=O)[C@@H](NC(=O)[C@H](CC(C)C)NC(=O)[C@@H](NC(=O)[C@H](CO)NC(=O)[C@H](CC(C)C)NC(=O)[C@H](C)N)[C@@H](C)O)C(C)C)C(C)C)C(=O)N[C@@H](CCCNC(=N)N)C(=O)NCC(=O)N[C@H](C(=O)N[C@@H](Cc1ccccc1)C(=O)N[C@@H](CCCCN)C(=O)O)[C@@H](C)O` [Peptide F196.09], for which the IC50 in test [5] was 7.6 nM; in test [3], 160 nM; in [4], 214 nM; in test [6] it was 32 nM; in test [7] it was 38 nM.
For ACSWGMVMLMLVRFK [Peptide 89.0043], the IC50 in [2] was above 20000 nM; in test [8], 2900 nM; in test [9] it was 10500 nM; in test [4], 467 nM; in test [6] (Binding affinity DRB1 *1101), 679 nM; in [7] (Binding affinity DRB5 *0101) it was 5630 nM.
For ACSWGMVVLLLVRYK [Peptide 89.0004], the IC50 was 1020 nM in test [10]; 701 nM in [1]; 4770 nM in test [8]; 2000 nM in [9]; 870 nM in [3]; 1520 nM in [4]. In addition, the IC50 in [7] (Binding affinity DRB5 *0101) was above 20000 nM.
Take Ac-AAAKAAAAAAFAA [Peptide 730.09]: in test [1], the IC50 was found to be 421 nM.
On the same count and under the same terms, then Ac-AAAKAAAAAAYAA [Peptide 702.08], with 348 nM.
Consider EIYIIEETTCTLVAG [Peptide 90.0251], for which the IC50 in test [5] came out at 1110 nM; in test [4] it was 1100 nM.
On to GHQVVPPMAVSKAKA [Peptide 90.0011], for which the IC50 in test [1] came to 451 nM; in test [2], 6240 nM; in [8], 1630 nM; in [5] it was 2580 nM; in test [4], 66 nM; in [6] (Binding affinity DRB1 *1101), 2060 nM. For the same compound, the IC50 in [7] (Binding affinity DRB5 *0101) was found to be 5320 nM.
For GKSYFGMSLIHFLKG [Peptide 89.0146], the IC50 in test [10] is above 20000 nM; in [1], 561 nM; in test [2], above 20000 nM; in test [8], above 20000 nM; in test [9] it was above 20000 nM; in test [5], above 20000 nM. The IC50 in [3], in test [6] (Binding affinity DRB1 *1101) and in test [7] (Binding affinity DRB5 *0101) was above 20000 nM each time.
For KLFCADPAL [Peptide 1578.50], the IC50 in test [11] was 6.8 nM; in [12], above 20000 nM.
For LIRLENAILFTAREH [Peptide 90.0002], the IC50 stood at 23 nM in test [10]; 1220 nM in [1]; 11700 nM in test [8]; 51 nM in test [5]; 2070 nM in test [3]; 339 nM in test [4]. In addition, the results for the IC50 in test [6] (Binding affinity DRB1 *1101) and in test [7] (Binding affinity DRB5 *0101) were 5690 nM and 4270 nM, respectively.
As to LKTIIKPHCMYYHMQ [Peptide 89.0119], the IC50 in test [10] is above 20000 nM; in test [1] it was 2000 nM; in test [2] it was above 20000 nM; in test [8], above 20000 nM; in test [9], above 20000 nM; in test [5] it was 104 nM. The IC50 in [3] was 17400 nM; in [4], 1680 nM; in test [6] (Binding affinity DRB1 *1101), above 20000 nM; in test [7] it was above 20000 nM.
In [12], LLLPPLERLTL [Peptide 73.0157] yielded an IC50 above 20000 nM.
In [12], LQLPPLERLTV [Peptide 73.0158] showed an IC50 above 20000 nM.
Turning to LVQLKCPPLLITSNI [Peptide 89.0021], the IC50 in test [10] is 72 nM; in test [1], 4290 nM; in test [8], above 20000 nM; in [9] it was above 20000 nM; in test [4] it was 234 nM; in [6] (Binding affinity DRB1 *1101) it was above 20000 nM. Further, in test [7] (Binding affinity DRB5 *0101), the IC50 is above 20000 nM.
In the case of NKALQAIELQLTLET [Peptide 89.0151], the IC50 is 80 nM in test [10]; 1200 nM in test [2]; 16800 nM in [9]; 1800 nM in test [5]; above 20000 nM in test [3]; 32 nM in [4]. For the same compound, the IC50 in [7] (Binding affinity DRB5 *0101) was determined as 462 nM.
With QYIKANSSFIGITE, the IC50 in test [1] was 13 nM.
As for RLTVSKLMSQLLNIP [Peptide 89.0100], the IC50 in [2] is 4990 nM; in test [8] it was above 20000 nM; in test [9], above 20000 nM; in test [5], 7.3 nM; in [3], above 20000 nM; in [4], 4820 nM. Moreover, the IC50 in [6] (Binding affinity DRB1 *1101) and in test [7] (Binding affinity DRB5 *0101) was above 20000 nM in each case.
Turning to RTLHDLCQA [Peptide 1481.46], the IC50 in [12] is above 20000 nM.
For SWGMVMLMLVRFKCA [Peptide 89.0044], the IC50 in test [10] is 4890 nM; in test [1], 3380 nM; in [2], above 20000 nM; in test [8], 9990 nM; in [9] it was above 20000 nM; in test [5], 975 nM. Also, the figures for the IC50 in test [4] and in test [7] (Binding affinity DRB5 *0101) were 1440 nM and 5060 nM, respectively.
In the case of TLHDLCQAL [Peptide 1481.47], the IC50 in test [12] is above 20000 nM.
Take TNCMLIQPPKLRSTA [Peptide 89.0046]: the IC50 in [2] is 1120 nM; in [9], above 20000 nM; in test [5], 5100 nM; in [3], 5120 nM; in [4], 479 nM; in [6] (Binding affinity DRB1 *1101) it was 1090 nM.
As to VTAKELKFV [Peptide 1418.24], the IC50 in test [12] is above 20000 nM.
